One data set in a line: PK analysis in rats. Format: in vivo. The settings on record: male, Sprague-Dawley, rat, plasma, po, 100 mg/kg.
A short description of data set [1]: Water solubility by UV-vis. The settings on record: deionized water, 20 °C, thermodynamic from solid.

≈ marks a conversion by molar mass, not a printed value.

Consider `C=C(c1ccc(C(=O)O)cc1)c1cc2c(cc1C)C(C)(C)CCC2(C)C` [Compound 1, bexarotene], for which, in the data set “PK analysis in rats”, the AUC (as a rule, concentration integrated over time) came to 51500 ng·h/mL; the AUC(0-inf) (in general, the area under the concentration-time curve extrapolated to infinity) came out at 54300 ng·h/mL; the AUC(0-t) (as a rule, the area under the concentration-time curve up to a stated or last time point) is 51500 ng·h/mL; the Tmax (usually the time at which the peak concentration occurs) is 2 h. Moreover, the solubility (usually the concentration that dissolves in the medium under given conditions) at 24 h in data set [1] was determined as 0.28 ± 0.02 µM (≈ 0.0976 µg/mL).

These data come from PMC4448986 (Pharmacology Research & Perspectives, 2015).
